The values that follow come from patent publication US20040097595A1, “Phthalamide derivatives, insecticides for agricultural and horticultural use and method for application thereof” (priority 2001, published 2004).

In data set [1] the test system is Common Cutworm (Spodoptera litura). The data set is described as follows: Test Example 2: insecticidal effect on common cutworm, cabbage leaf immersion. Format: in vivo. To be noted: cabbage leaf immersed, second-instar larvae, eight days after inoculation, 25° C. From the text:
Insecticidal Effect on Common Cutworm (Spodoptera litura)
A piece of cabbage leaf (cultivar; Shikidori) was immersed for about 30 seconds in a liquid chemical prepared by diluting a preparation containing each compound listed in Table 1 or 2 as an active ingredient to adjust the prescribed concentration. After air-dryness, it was placed in a plastic Petri dish with a diameter of 9 cm and inoculated with second-instar larvae of common cutworm, after which the dish was closed and then allowed to stand in a room thermostatted at 25° C. Eight days after the inoculation, the dead and alive were counted. The mortality was calculated according to the following equation and the insecticidal effect was judged according to the criterion shown in Test Example 1. The test was carried out with triplicate groups of 10 insects. [formula]

For data set [2], the system named is Diamond Back Moth (Plutella xylostella). The data set is described as follows: Test Example 1: insecticidal effect on diamond back moth, Chinese cabbage seedling with eggs immersed in liquid chemical. Format: in vivo. Particulars: eggs on Chinese cabbage seedling immersed about 30 seconds, six days after immersion, 25° C. The source says:
Insecticidal Effect on Diamond Back Moth (Plutella xylostella)
Adult diamond back moths were released and allowed to oviposit on a Chinese cabbage seedling. Two days after the release, the seedling having the eggs deposited thereon was immersed for about 30 seconds in a liquid chemical prepared by diluting a preparation containing each compound listed in Table 1 or 2 as an active ingredient to adjust the prescribed concentration. After air-dryness, it was allowed to stand in a room thermostatted at 25° C. Six days after the immersion, the hatched insects were counted. The mortality was calculated according to the following equation and the insecticidal effect was judged according to the criterion shown below. The test was carried out with triplicate groups of 10 insects. [formula]

`CSCC(C)(C)NC(=O)c1c(I)cccc1C(=O)Nc1ccc(OC(F)F)c(Cl)c1Cl` [Compound 1-43]: the “Test Example 2 insecticidal effect (mortality grade)” value (“Test Example 2 insecticidal effect” below) in data set [1] (5 ppm) and in data set [1] (50 ppm) was “A (Mortality 100%)” throughout. The “Test Example 1 insecticidal effect (mortality grade)” value (“Test Example 1 insecticidal effect” below) in data set [2] (5 ppm) and in data set [2] (50 ppm) was “A (Mortality 100%)” throughout.
Take `CSCC(C)(C)NC(=O)c1c(I)cccc1C(=O)Nc1ccc(Oc2ncc(C(F)(F)F)cc2Cl)cc1Cl` [Compound 1-95]: the results for the “Test Example 2 insecticidal effect” value in data set [1] (5 ppm) and in data set [1] (50 ppm) were “E (Mortality 49-0%)” and “A (Mortality 100%)”, respectively. Further, the “Test Example 1 insecticidal effect” value in data set [2] (5 ppm) and in data set [2] (50 ppm) was “A (Mortality 100%)” in each case.
As to `CSCC(C)(C)NC(=O)c1c(I)cccc1C(=O)Nc1ccc(OC(F)(F)C(F)C(F)(F)F)c(Cl)c1Cl` (stereo not drawn) [Compound 1-69], the “Test Example 2 insecticidal effect” value in data set [1] (5 ppm) is reported as “E (Mortality 49-0%)”; in data set [1] (50 ppm), “A (Mortality 100%)”. Moreover, the “Test Example 1 insecticidal effect” value in data set [2] (5 ppm) and in data set [2] (50 ppm) was “A (Mortality 100%)” each time.
Consider `CSCC(C)(C)NC(=O)c1c(I)cccc1C(=O)Nc1cc(Cl)c(OC(F)(Cl)C(F)(Cl)C(F)(F)F)cc1Cl` (stereo not drawn) [Compound 1-73], for which the “Test Example 2 insecticidal effect” value is “E (Mortality 49-0%)” in data set [1] (5 ppm) and “A (Mortality 100%)” in data set [1] (50 ppm). Besides, the “Test Example 1 insecticidal effect” value was “E (Mortality 49-0%)” in data set [2] (5 ppm) and “A (Mortality 100%)” in data set [2] (50 ppm).
Regarding `CSCC(C)(C)NC(=O)c1c(I)cccc1C(=O)Nc1ccc(Oc2ncc(C(F)(F)F)cc2Cl)c(Cl)c1Cl` [Compound 1-98], the results for the “Test Example 2 insecticidal effect” value in data set [1] (5 ppm) and in data set [1] (50 ppm) were “E (Mortality 49-0%)” and “A (Mortality 100%)”, respectively. The “Test Example 1 insecticidal effect” value in data set [2] (5 ppm) and in data set [2] (50 ppm) was “A (Mortality 100%)” throughout.
On to `CSCC(C)(C)NC(=O)c1c(I)cccc1C(=O)Nc1ccc(Oc2ccc(C(F)(F)F)cn2)cc1Cl` [Compound 1-94], for which the “Test Example 2 insecticidal effect” value in data set [1] (5 ppm) was “E (Mortality 49-0%)”; in data set [1] (50 ppm), “A (Mortality 100%)”. The “Test Example 1 insecticidal effect” value in data set [2] (5 ppm) and in data set [2] (50 ppm) was “A (Mortality 100%)” each time.
Consider `CSCC(C)(C)NC(=O)c1c(I)cccc1C(=O)Nc1ccc(-c2ccc(Cl)cc2)cc1Cl` [Compound 1-38], for which the figures for the “Test Example 2 insecticidal effect” value in data set [1] (5 ppm) and in data set [1] (50 ppm) were “E (Mortality 49-0%)” and “A (Mortality 100%)”, respectively. In addition, the “Test Example 1 insecticidal effect” value in data set [2] (5 ppm) and in data set [2] (50 ppm) was “A (Mortality 100%)” each time.
Regarding `C[S+]([O-])CC(C)(C)NC(=O)c1c(I)cccc1C(=O)Nc1ccc(OC(F)(F)C(F)OC(F)(F)C(F)(F)C(F)(F)F)cc1Cl` (stereo not drawn) [Compound 1-82], the results for the “Test Example 2 insecticidal effect” value in data set [1] (5 ppm) and in data set [1] (50 ppm) were “C (Mortality 89-80%)” and “A (Mortality 100%)”, respectively. The “Test Example 1 insecticidal effect” value in data set [2] (5 ppm) and in data set [2] (50 ppm) was “A (Mortality 100%)” in each case.
With `CSCC(C)(C)NC(=O)c1c(I)cccc1C(=O)Nc1ccc(SC(F)F)cc1Cl` [Compound 1-107], the “Test Example 2 insecticidal effect” value in data set [1] (5 ppm) and in data set [1] (50 ppm) was “E (Mortality 49-0%)” throughout. Moreover, the “Test Example 1 insecticidal effect” value in data set [2] (5 ppm) and in data set [2] (50 ppm) was “A (Mortality 100%)” throughout.
